Our source for the melting point values is US9051342B2 (priority 2004, dated 2015).

Each structure is given as a SMILES string. Where a name gives a salt, the structure may show the parent alone.

For `O=C(O)c1cccc(-c2ncn(-c3ccc(-c4ccccc4)cc3)n2)c1` [Compound 24, 3-(1-Biphenyl-4-yl-1H-[1,2,4]triazol-3-yl)-benzoic acid], the melting point was in the range of 263 to 265 °C.

For `COC(=O)c1cccc(-n2ccc(-c3cccc(C#N)c3)n2)c1` [Compound 64, 3-[3-(3-Cyano-phenyl)-pyrazol-1-yl]-benzoic acid methyl ester], the melting point lay in the range of 143 to 145 °C.

Molecule `CC(=O)c1ccc(-n2ccc(-c3cccc(C(=O)O)c3)n2)cc1` [Compound 255, 3-[1-(4-Acetyl-phenyl)-1H-pyrazol-3-yl]-benzoic acid] registered a melting point of 215 to 216 °C.

`COc1ccc(-n2ccc(-c3cccc(C#N)c3)n2)cc1` [Compound 58, 3-[1-(4-Methoxy-phenyl)-1H-pyrazol-3-yl]-benzonitrile] registered a melting point of 110 to 112 °C.

Molecule `CC(C)c1ccc(-c2nn(-c3ccc(C(=O)O)cc3)c(=S)o2)cc1` [Compound 285, 4-[5-(4-Isopropyl-phenyl)-2-thioxo-[1,3,4]oxadiazol-3-yl]-benzoic acid] had a melting point of 239 to 240 °C.

With `Cc1ccccc1-n1ccc(-c2cccc(C(=O)O)c2)c1` [Compound 240, 3-(1-o-Tolyl-1H-pyrrol-3-yl)-benzoic acid], the melting point fell in the range of 161 to 163 °C.

Molecule `Cc1ccc(-n2cc(-c3cccc(C(=O)O)c3)cn2)cc1Cl` [Compound 230, 3-[1-(3-Chloro-4-methyl-phenyl)-1H-pyrazol-4-yl]-benzoic acid] displayed a melting point of 209 to 211 °C.

Regarding `COc1ccc2c(c1)-c1cnn(-c3cccc(C(=O)O)c3)c1CC2` [Compound 254, 3-(8-Methoxy-4,5-dihydro-benzo[e]indazol-3-yl)-benzoic acid], the melting point is 269 to 271 °C.

In turn, `O=C(O)c1cccc(-n2cc(-c3ccc(O)cc3)cn2)c1` [Compound 100, 3-[4-(4-Hydroxy-phenyl)-pyrazol-1-yl]-benzoic acid] registered a melting point of 282 to 284 °C.

The molecule `O=C(O)c1ccc(-c2ccn(-c3cccc(F)c3)c2)cc1` [Compound 152, 4-[1-(3-Fluoro-phenyl)-1H-pyrrol-3-yl]-benzoic acid] showed a melting point of 211 to 213 °C.

As to `O=C(O)c1cccc(-n2cc3c(n2)-c2ccccc2CC3)c1` [Compound 137, 3-(4,5-Dihydro-benzo[g]indazol-2-yl)-benzoic acid], the melting point was in the range of 191 to 192 °C.

In turn, `COc1cccc(-n2cnc(-c3ccc(C(=O)O)cc3)n2)c1` registered a melting point of 203 to 205 °C.

On to `COc1ccc(-n2cc(-c3cccc(C(=O)O)n3)cn2)cc1` [Compound 53, 6-[1-(4-Methoxy-phenyl)-1H-pyrazol-4-yl]-pyridine-2-carboxylic acid], for which the melting point was in the range of 122 to 123 °C.

For the molecule `COc1ccc(-c2ncn(-c3cccc(C(=O)O)c3)n2)cc1` [Compound 11, 3-[3-(4-Methoxy-phenyl)-[1,2,4]triazol-1-yl]-benzoic acid], the melting point lay within 268 to 270 °C.

The molecule `Cc1ccc(-n2cnc(-c3cccc(C(=O)O)c3)n2)cc1` [Compound 14, 3-(1-p-Tolyl-1H-[1,2,4]triazol-3-yl)-benzoic acid] gave a melting point of 263 to 265 °C.

The molecule `N#Cc1cccc(-c2ccn(-c3ccc(C(F)(F)F)cc3)n2)c1` [Compound 62, 3-[1-(4-Trifluoromethyl-phenyl)-1H-pyrazol-3-yl]-benzonitrile] yielded a melting point of 70 to 74 °C.

For `O=C(O)c1cccc(-c2ccn(-c3ccc([N+](=O)[O-])cc3)n2)c1` [Compound 168, 3-[1-(4-Nitro-phenyl)-1H-pyrazol-3-yl]-benzoic acid], the melting point is 280 to 281 °C.

`O=C(O)c1cccc(-c2ncn(-c3ccc(F)c(Cl)c3)n2)c1` [Compound 25, 3-[1-(3-Chloro-4-fluoro-phenyl)-1H-[1,2,4]triazol-3-yl]-benzoic acid] yielded a melting point of 270 to 272 °C.

`O=C(O)c1cccc(-c2ncn(-c3ccc(F)cc3)n2)c1` [Compound 13, 3-[1-(4-Fluoro-phenyl)-1H-[1,2,4]triazol-3-yl]-benzoic acid]: the melting point is over 310 °C.

In turn, `O=C(O)c1cccc(-n2cc3c(n2)CCc2ccccc2-3)c1` [Compound 141, 3-(4,5-Dihydro-benzo[e]indazol-2-yl)-benzoic acid] showed a melting point of 233 to 234 °C.

`CC(C)c1ccc(-c2ccn(-c3cccc(C(=O)O)c3)c2)cc1` [Compound 287] came in with a melting point of 244 to 245 °C.

Molecule `O=C(O)c1ccc(-c2cnn(-c3cccc(OC(F)(F)F)c3)c2)cc1` [Compound 224, 4-[1-(3-Trifluoromethoxy-phenyl)-1H-pyrazol-4-yl]-benzoic acid] returned a melting point of 230 to 231 °C.

For the molecule `O=C(O)c1ccc(-n2cc(-c3ccc(C(F)(F)F)cc3)nn2)cc1` [Compound 202, 4-[4-(4-Trifluoromethyl-phenyl)-[1,2,3]triazol-1-yl]-benzoic acid], the melting point lay within 305 to 306 °C.

Molecule `Cc1cccc(-c2cnn(-c3ccc(C(=O)O)cc3)c2)c1` [Compound 91, 4-(4-m-Tolyl-pyrazol-1-yl)-benzoic acid] registered a melting point of 251 to 252 °C.

Regarding `Cc1ccc(-c2ccn(-c3cccc(C(=O)O)c3)n2)cc1` [Compound 170, 3-(3-p-Tolyl-pyrazol-1-yl)-benzoic acid], the melting point lay in the range of 180 to 182 °C.

Consider `O=C(O)c1cccc(-c2ncn(-c3ccc(Br)cc3)n2)c1` [Compound 22, 3-[1-(4-Bromo-phenyl)-1H-[1,2,4]triazol-3-yl]-benzoic acid], for which the melting point is over 310 °C.

As to `CC(C)c1ccc(-n2cc(-c3cccc(C(=O)O)c3)cn2)cc1` [Compound 228, 3-[1-(4-Isopropyl-phenyl)-1H-pyrazol-4-yl]-benzoic acid], the melting point lay in the range of 212 to 215 °C.

For `COc1ccc(-n2cc(-c3cc(C(=O)O)ccc3[N+](=O)[O-])cn2)cc1` [Compound 55, 3-[1-(4-Methoxy-phenyl)-1H-pyrazol-4-yl]-4-nitro-benzoic acid], the melting point is 249 to 250 °C.

`O=C(O)c1cccc(-c2ccn(-c3ccc(F)c(F)c3)n2)c1` [Compound 68, 3-[1-(3,4-Difluoro-phenyl)-1H-pyrazol-3-yl]-benzoic acid] had a melting point of 240 to 244 °C.

Consider `O=C(O)c1ccc(-n2cnc(-c3ccccc3)c2)cc1` [Compound 263, 4-(4-Phenyl-imidazol-1-yl)-benzoic acid], for which the melting point fell in the range of 263 to 265 °C.

As to `O=C(O)c1ccc(-c2ccn(-c3cccs3)n2)cc1` [Compound 259, 4-(1-Thiophen-2-yl-1H-pyrazol-3-yl)-benzoic acid], the melting point lay within 200 to 202 °C.

On to `COc1ccc(-c2cn(-c3ccc(C(=O)O)cc3)nn2)cc1` [Compound 203, 4-[4-(4-Methoxy-phenyl)-[1,2,3]triazol-1-yl]-benzoic acid], for which the melting point was 294 to 295 °C.

For `O=C(O)c1cccc(-c2ccn(-c3ccc(C(F)(F)F)cc3)c2)c1` (as salt: sodium) [Compound 154, 3-[1-(4-Trifluoromethyl-phenyl)-]-1H-pyrrol-3-yl]-benzoic acid sodium salt], the melting point was in the range of 224 to 226 °C.

`COc1ccc(-c2cn(-c3ccc(C(=O)O)cc3)nn2)c(C)c1` [Compound 274, 4-[4-(4-Methoxy-2-methyl-phenyl)-[1,2,3]triazol-1-yl]-benzoic acid] returned a melting point of 244 to 245 °C.

In turn, `O=C(O)c1ccc(-n2cc(-c3ccncn3)cn2)cc1` [Compound 118, 4-(4-Pyrimidin-4-yl-pyrazol-1-yl)-benzoic acid] displayed a melting point of over 350 °C.

With `CCOc1ccc(-c2cn(-c3ccc(C(=O)O)cc3)nn2)cc1` [Compound 273, 4-[4-(4-Ethoxy-phenyl)-[1,2,3]triazol-1-yl]-benzoic acid], the melting point lay within 310 to 311 °C.

`CCc1ccc(-n2ccc(-c3ccc(C(=O)O)cc3)c2)cc1` [Compound 129, 4-[1-(4-Ethyl-phenyl)-1H-pyrrol-3-yl]-benzoic acid] displayed a melting point of 278 to 280 °C.

On to `O=C(O)c1ccc(-c2cnn(-c3cccc(OC(F)F)c3)c2)cc1` [Compound 173], for which the melting point was 255 to 257 °C.

Consider `N#Cc1cccc(-c2nn(-c3ccc(C(=O)O)cc3)c(=O)o2)c1` [Compound 280, 4-[5-(3-cyanophenyl)-2-oxo-1,3,4-oxadiazol-3(2H)-yl]benzoic acid], for which the melting point is 294 to 295 °C (dec.).

Molecule `O=C(O)c1ccc(-n2cc(-c3ccc(F)cc3F)nn2)cc1` [Compound 268, 4-[4-(2,4-Difluoro-phenyl)-[1,2,3]triazol-1-yl]-benzoic acid] gave a melting point of 312 to 313 °C.

Consider `O=C(O)c1cccc(-n2cc(-c3ccncc3)cn2)c1` [Compound 115, 3-(4-Pyridin-4-yl-pyrazol-1-yl)-benzoic acid], for which the melting point lay in the range of 300 to 302 °C.

Take `Cc1ccccc1-n1ccc(-c2ccc(C(=O)O)cc2)c1` [Compound 195, 4-(1-o-Tolyl-1H-pyrrol-3-yl)-benzoic acid]: the melting point lay within 208 to 209 °C.

Regarding `O=C(O)c1ccc(-c2cnn(-c3ccc(F)cc3F)c2)cc1` [Compound 180, 4-[1-(2,4-Difluoro-phenyl)-1H-pyrazol-4-yl]-benzoic acid], the melting point was in the range of 258 to 260 °C.

For `O=C(O)c1ccc(-c2ccn(-c3ccc(OC(F)(F)F)cc3)n2)cc1` [Compound 218, 4-[1-(4-Trifluoromethoxy-phenyl)-1H-pyrazol-3-yl]-benzoic acid], the melting point lay within 214 to 215 °C.

The molecule `O=C(O)c1cccc(-n2cc(-c3ccc(Cl)cc3)cn2)c1` [Compound 49, 3-[4-(4-Chloro-phenyl)-pyrazol-1-yl]-benzoic acid] showed a melting point of 253 to 254 °C.

As for `O=C(O)c1cccc(-n2cc(-c3cccc(F)c3)cn2)c1` [Compound 213, 3-[4-(3-Fluoro-phenyl)-pyrazol-1-yl]-benzoic acid], the melting point lay within 228 to 230 °C.

`O=C(O)c1ccc(-n2cc(-c3cccc(F)c3)nn2)cc1` [Compound 265, 4-[4-(3-Fluoro-phenyl)-[1,2,3]triazol-1-yl]-benzoic acid] came in with a melting point of 327 to 328 °C.

`O=C(O)c1ccc(-n2cc(-c3cccc(Cl)c3)cn2)cc1` [Compound 211, 4-[4-(3-Chloro-phenyl)-pyrazol-1-yl]-benzoic acid] had a melting point of 252 to 255 °C.
